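1) Cells in 96-well plates. 2) Compound, 48 h, 5 concentrations. 3) Linear interpolation between surrounding doses. 4) Unreached endpoint = highest concentration. Abbreviation: GI50, concentration required for 50% inhibition of growth.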 Calls of active or inactive are those of the source. No stated cut-off is given here; in the data, active = GI50 up to about 1.1 µM and inactive = higher. Where a SMILES comes first, the peptide text is derived from it. [ ]: non-standard residue; d: D form. The star is where a group is joined. ξ: configuration not given here. ξNMe2Val = CC(C)C(C(=O)*)N(C)C; NMeV = CN[CH](C(=O)O)C(C)C; NHBn = c1ccc(CN*)cc1
Tests used:
Assay in all cases: growth of human tumour cells (NCI), 48 h
[1] = tested on: HT-29
[2] = tested on: M14
[3] = tested on: OVCAR-4
[4] = tested on: SF-295
[5] = tested on: COLO 205
[6] = tested on: MDA-N
[7] = tested on: RXF 393
[8] = tested on: UACC-62
[9] = tested on: A498
[10] = tested on: SR
[11] = tested on: NCI-H23
[12] = tested on: HL-60
[13] = tested on: SF-539
[14] = tested on: OVCAR-8
[15] = tested on: ACHN
[16] = tested on: HCC 2998
[17] = tested on: SK-MEL-5
[18] = tested on: HOP-62
[19] = tested on: NCI-H226
[20] = tested on: SF-268
[21] = tested on: SNB-75
[22] = tested on: BT-549
[23] = tested on: DU-145
[24] = tested on: LOX IMVI
[25] = tested on: A549
[26] = tested on: NCI-H460
[27] = tested on: K562
[28] = tested on: Malme-3M
[29] = tested on: IGROV-1
[30] = tested on: UO-31
[31] = tested on: KM12
[32] = tested on: CCRF-CEM
[33] = tested on: OVCAR-5
[34] = tested on: SK-MEL-2
[35] = tested on: HCT-116
[36] = tested on: MOLT-4
[37] = tested on: NCI-H522
[38] = tested on: HCT-15
[39] = tested on: U-251
[40] = tested on: 786-0
[41] = tested on: SN12C
[42] = tested on: RPMI-8226
[43] = tested on: MDA-MB-231
[44] = tested on: SNB-19
[45] = tested on: Hs-578T
[46] = tested on: SW-620
[47] = tested on: UACC-257
[48] = tested on: MDA-MB-435
[49] = tested on: HOP-92
[50] = tested on: NCI/ADR-RES
[51] = tested on: PC-3
[52] = tested on: CAKI-1
[53] = tested on: EKVX
[54] = tested on: SK-OV-3
[55] = tested on: T47D
[56] = tested on: SK-MEL-28
[57] = tested on: OVCAR-3
[58] = tested on: TK-10
[59] = tested on: MCF7

**Q.** With `CC(C)C(NC(=O)C(C(C)C)N(C)C)C(=O)N(C)C(C(=O)N1CCCC1C(=O)N1CCCC1C(=O)NCc1ccccc1)C(C)C` (configuration not stated) (ξNMe2Val-V[NMeV]PP-NHBn; configuration not given here) as the molecule, how does the GI50 [1] read?
**A.** < 0.1 nM (active)

**Q.** And the GI50 [2]?
**A.** < 0.1 nM (active)

**Q.** And the GI50 [3]?
**A.** 15700 nM (inactive)

**Q.** And the GI50 [4]?
**A.** < 0.1 nM (active)

**Q.** And the GI50 [5]?
**A.** < 0.1 nM (active)

**Q.** What about the GI50 [6] of the same molecule?
**A.** < 0.1 nM (active)

**Q.** What about the GI50 [7] of the same molecule?
**A.** 17.5 nM (active)

**Q.** What about the GI50 [8] of the same molecule?
**A.** < 0.1 nM (active)

**Q.** What about the GI50 [9] of the same molecule?
**A.** < 10 nM (active)

**Q.** What about the GI50 [10] of the same molecule?
**A.** < 0.1 nM (active)

**Q.** And the GI50 [11]?
**A.** < 0.1 nM (active)

**Q.** What about the GI50 [12] of the same molecule?
**A.** < 0.1 nM (active)

**Q.** And the GI50 [13]?
**A.** < 10 nM (active)

**Q.** And the GI50 [14]?
**A.** < 0.1 nM (active)

**Q.** And the GI50 [15]?
**A.** < 0.1 nM (active)

**Q.** And the GI50 [16]?
**A.** < 0.1 nM (active)

**Q.** And the GI50 [17]?
**A.** < 0.1 nM (active)

**Q.** What about the GI50 [18] of the same molecule?
**A.** < 0.1 nM (active)

**Q.** What about the GI50 [19] of the same molecule?
**A.** < 0.1 nM (active)

**Q.** And the GI50 [20]?
**A.** < 0.1 nM (active)

**Q.** And the GI50 [21]?
**A.** 172 nM (active)

**Q.** What about the GI50 [22] of the same molecule?
**A.** < 0.1 nM (active)

**Q.** What about the GI50 [23] of the same molecule?
**A.** < 0.1 nM (active)

**Q.** What about the GI50 [24] of the same molecule?
**A.** < 0.1 nM (active)

**Q.** What about the GI50 [25] of the same molecule?
**A.** < 0.1 nM (active)

**Q.** And the GI50 [26]?
**A.** < 0.1 nM (active)

**Q.** What about the GI50 [27] of the same molecule?
**A.** 1 nM (active)

**Q.** What about the GI50 [28] of the same molecule?
**A.** < 10 nM (active)

**Q.** And the GI50 [29]?
**A.** < 0.1 nM (active)

**Q.** And the GI50 [30]?
**A.** 1.5 nM (active)

**Q.** And the GI50 [31]?
**A.** < 0.1 nM (active)

**Q.** And the GI50 [32]?
**A.** < 0.1 nM (active)

**Q.** What about the GI50 [33] of the same molecule?
**A.** 67.5 nM (active)

**Q.** What about the GI50 [34] of the same molecule?
**A.** < 0.1 nM (active)

**Q.** What about the GI50 [35] of the same molecule?
**A.** < 0.1 nM (active)

**Q.** And the GI50 [36]?
**A.** < 0.1 nM (active)

**Q.** And the GI50 [37]?
**A.** < 10 nM (active)

**Q.** And the GI50 [38]?
**A.** < 0.1 nM

**Q.** And the GI50 [39]?
**A.** < 0.1 nM (active)

**Q.** What about the GI50 [40] of the same molecule?
**A.** < 0.1 nM (active)

**Q.** What about the GI50 [41] of the same molecule?
**A.** < 0.1 nM (active)

**Q.** What about the GI50 [42] of the same molecule?
**A.** < 0.1 nM (active)

**Q.** And the GI50 [43]?
**A.** < 0.1 nM (active)

**Q.** What about the GI50 [44] of the same molecule?
**A.** < 10 nM (active)

**Q.** What about the GI50 [45] of the same molecule?
**A.** < 0.1 nM (active)

**Q.** What about the GI50 [46] of the same molecule?
**A.** < 0.1 nM (active)

**Q.** What about the GI50 [47] of the same molecule?
**A.** < 0.1 nM (active)

**Q.** And the GI50 [48]?
**A.** < 0.1 nM (active)

**Q.** And the GI50 [49]?
**A.** < 0.1 nM (active)

**Q.** And the GI50 [50]?
**A.** 1.79 nM (active)

**Q.** What about the GI50 [51] of the same molecule?
**A.** < 0.1 nM (active)

**Q.** What about the GI50 [52] of the same molecule?
**A.** < 0.1 nM (active)

**Q.** And the GI50 [53]?
**A.** 18.7 nM (active)

**Q.** What about the GI50 [54] of the same molecule?
**A.** 0.221 nM (active)

**Q.** For `Nc1c(-c2ccc(Cl)c(Cl)c2)c2ccc([N+](=O)[O-])cc2c(=O)n1-c1nc2ccccc2s1`, which GI50 [1] is on record?
**A.** 824 nM (active)

**Q.** And the GI50 [2]?
**A.** 675 nM (active)

**Q.** And the GI50 [3]?
**A.** 1190 nM (inactive)

**Q.** And the GI50 [4]?
**A.** 551 nM (active)

**Q.** What about the GI50 [55] of the same molecule?
**A.** 386 nM (active)

**Q.** What about the GI50 [5] of the same molecule?
**A.** 1500 nM (inactive)

**Q.** What about the GI50 [6] of the same molecule?
**A.** 697 nM (active)

**Q.** What about the GI50 [7] of the same molecule?
**A.** 689 nM (active)

**Q.** And the GI50 [8]?
**A.** 419 nM (active)

**Q.** And the GI50 [9]?
**A.** 566 nM (active)

**Q.** What about the GI50 [10] of the same molecule?
**A.** 417 nM (active)

**Q.** And the GI50 [11]?
**A.** 266 nM (active)

**Q.** What about the GI50 [12] of the same molecule?
**A.** 318 nM (active)

**Q.** And the GI50 [13]?
**A.** 2650 nM (inactive)

**Q.** What about the GI50 [14] of the same molecule?
**A.** 366 nM (active)

**Q.** And the GI50 [15]?
**A.** 448 nM (active)

**Q.** And the GI50 [56]?
**A.** 18200 nM (inactive)

**Q.** What about the GI50 [16] of the same molecule?
**A.** 18600 nM (inactive)

**Q.** And the GI50 [17]?
**A.** 328 nM (active)

**Q.** And the GI50 [18]?
**A.** 1060 nM (active)

**Q.** And the GI50 [19]?
**A.** 586 nM (active)

**Q.** What about the GI50 [20] of the same molecule?
**A.** 531 nM (active)

**Q.** And the GI50 [21]?
**A.** 1070 nM (active)

**Q.** What about the GI50 [22] of the same molecule?
**A.** 762 nM (active)

**Q.** And the GI50 [57]?
**A.** 382 nM (active)

**Q.** And the GI50 [23]?
**A.** 867 nM (active)

**Q.** What about the GI50 [24] of the same molecule?
**A.** 538 nM (active)

**Q.** And the GI50 [25]?
**A.** 407 nM (active)

**Q.** And the GI50 [26]?
**A.** 386 nM (active)

**Q.** And the GI50 [27]?
**A.** 367 nM (active)

**Q.** What about the GI50 [28] of the same molecule?
**A.** 403 nM (active)

**Q.** What about the GI50 [58] of the same molecule?
**A.** 594 nM (active)

**Q.** And the GI50 [29]?
**A.** 796 nM (active)

**Q.** What about the GI50 [30] of the same molecule?
**A.** 445 nM (active)

**Q.** And the GI50 [31]?
**A.** 640 nM (active)

**Q.** What about the GI50 [32] of the same molecule?
**A.** 223 nM (active)

**Q.** And the GI50 [59]?
**A.** 401 nM (active)

**Q.** What about the GI50 [33] of the same molecule?
**A.** 1920 nM (inactive)

**Q.** What about the GI50 [34] of the same molecule?
**A.** 369 nM (active)

**Q.** What about the GI50 [35] of the same molecule?
**A.** 202 nM (active)

**Q.** What about the GI50 [36] of the same molecule?
**A.** 1120 nM (active)

**Q.** And the GI50 [37]?
**A.** 193 nM (active)

**Q.** What about the GI50 [38] of the same molecule?
**A.** 460 nM

**Q.** And the GI50 [39]?
**A.** 425 nM (active)

**Q.** What about the GI50 [40] of the same molecule?
**A.** 767 nM (active)

**Q.** And the GI50 [41]?
**A.** 335 nM (active)

**Q.** And the GI50 [42]?
**A.** 391 nM (active)

**Q.** And the GI50 [43]?
**A.** 614 nM (active)

**Q.** What about the GI50 [44] of the same molecule?
**A.** 418 nM (active)

**Q.** And the GI50 [46]?
**A.** 574 nM (active)

**Q.** What about the GI50 [47] of the same molecule?
**A.** 471 nM (active)

**Q.** What about the GI50 [48] of the same molecule?
**A.** 582 nM (active)

**Q.** And the GI50 [49]?
**A.** 296 nM (active)

**Q.** And the GI50 [50]?
**A.** 577 nM (active)

**Q.** What about the GI50 [51] of the same molecule?
**A.** 311 nM (active)

**Q.** What about the GI50 [52] of the same molecule?
**A.** 719 nM (active)

**Q.** And the GI50 [53]?
**A.** 446 nM (active)

**Q.** And the GI50 [54]?
**A.** 689 nM (active)
